We go through 12 molecules from patent US6756402B2, “Cyclipostins, process for their preparation and use thereof” (Aventis Pharma Deutschland GmbH, priority 2000, dated 2004).

Read-outs that look alike come from different tables or passages of the source.

One series relates to lipases. The conditions noted are these: background statement on the known methyl analogue; cited from earlier work.
Series [1] addresses T1, hormone-sensitive lipase (HSL) (Rattus norvegicus, UniProt P15304).
T1 construct: Isolated rat lipocytes were obtained from epididymal fatty tissue of nontreated male rats; from tissue; host or cells: rat epididymal fat tissue lipocytes (Wistar), partially purified
T1 sequence (P15304 1-768 isoform P15304-2): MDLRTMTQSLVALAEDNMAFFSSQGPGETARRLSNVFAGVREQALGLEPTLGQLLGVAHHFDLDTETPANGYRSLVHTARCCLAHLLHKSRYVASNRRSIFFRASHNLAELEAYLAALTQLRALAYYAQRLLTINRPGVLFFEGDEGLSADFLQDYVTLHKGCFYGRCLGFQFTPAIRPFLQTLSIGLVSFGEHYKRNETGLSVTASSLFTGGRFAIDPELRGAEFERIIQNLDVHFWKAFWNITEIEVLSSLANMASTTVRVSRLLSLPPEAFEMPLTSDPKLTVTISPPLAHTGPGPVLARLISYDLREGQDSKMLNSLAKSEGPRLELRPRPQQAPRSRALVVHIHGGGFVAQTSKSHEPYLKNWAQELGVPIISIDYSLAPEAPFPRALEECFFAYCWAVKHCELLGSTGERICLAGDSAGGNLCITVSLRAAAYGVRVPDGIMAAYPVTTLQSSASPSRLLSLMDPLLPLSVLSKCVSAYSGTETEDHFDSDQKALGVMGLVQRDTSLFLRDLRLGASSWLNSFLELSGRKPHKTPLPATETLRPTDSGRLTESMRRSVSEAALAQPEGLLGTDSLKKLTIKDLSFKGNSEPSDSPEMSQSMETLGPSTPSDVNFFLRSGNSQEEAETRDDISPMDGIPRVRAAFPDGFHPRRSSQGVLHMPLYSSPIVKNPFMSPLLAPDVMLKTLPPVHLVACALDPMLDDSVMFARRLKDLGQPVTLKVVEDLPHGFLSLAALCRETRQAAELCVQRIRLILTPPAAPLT
The series is described as follows: Inhibition of partially purified hormone-sensitive lipase (HSL) from rats, [3H]trioleoylglycerol substrate. Type of series: biochemical. The protocol: Isolated rat lipocytes were obtained from epididymal fatty tissue of nontreated male rats (Wistar, 220-250 g) by collagenase treatment according to published procedures (e.g., S. Nilsson et al., Anal. Biochem. 158:399-407 (1986); G. Fredrikson et al., J. Biol. Chem. 256, 6311-6320 (1981); H. Tornquist et al., J. Biol. Chem. 251:813-819 (1976)). The lipocytes from 10 rats were washed three times by flotation with 50 ml of homogenization buffer in each case ([…] TRIS/HCl, pH 7.4, 0.25 M sucrose, 1 mM EDTA, 1 mM DTT, 10 μg/ml of leupeptin, 10 μg/ml of antipain, 20 μg/ml of pepstatin) and finally taken up in 10 ml of homogenization buffer. The lipocytes were homogenized in a Teflon-in-glass homogenizer (Braun-Melsungen) by means of 10 strokes at 1500 rpm and 15° C. The homogenisate was centrifuged (Sorvall SM24 tubes, 5000 rpm, 10 min, 4° C.). The lower layer between the overlying fatty layer and the pellet was removed and the centrifugation was repeated. The lower layer resulting from this was centrifuged again (Sorvall SM24 tubes, 20000 rpm, 45 min, 4° C.). The lower layer was removed and treated with 1 g of heparin-sepharose (Pharmacia-Biotech, CL-6B, washed 5× with 25 mM Tris/HCl, pH 7.4, 150 mM NaCl). After incubation for 60 min at 4° C. (shaken at intervals of 15 min), the batch was centrifuged (Sorvall SM24 tubes, 3000 rpm, 10 min, 4° C.). The supernatant was brought to pH 5.2 by addition of acetic acid and incubated at 4° C. for 30 min. The precipitates were collected by centrifugation (Sorvall SS34, 12000 rpm, 10 min, 4° C.) and suspended in 2.5 ml of 20 mM Tris/HCl, pH 7.0, 1 mM EDTA, 65 mM NaCl, 13% of sucrose, 1 mM DTT, 10 μg/ml of leupeptin/pepstatin/antipain. The suspension was dialyzed overnight at 4° C. against 25 mM Tris/HCl, pH 7.4, 50% of glycerol, 1 mM DTT, 10 μg/ml of leupeptin, pepstatin, and antipain, and then applied to a hydroxylapetite column (0.1 g per 1 ml of suspension, equilibrated with 10 mM potassium phosphate, pH 7.0, 30% of glycerol, 1 mM DTT). The column was washed with four volumes of equilibration buffer at a flow rate of 20 to 30 ml/h. The HSL was eluted with a volume of equilibration buffer which contained 0.5 M potassium phosphate, then dialyzed (see above), and was concentrated 5 to 10 times by ultrafiltration (Amicon Diaflo PM 10 Filter) at 4° C. The partially purified HSL could be stored at −70° C. for 4 to 6 weeks.
For the preparation of the substrates, 25-50 μCi of [^3H]trioleoylglycerol (in toluene), 6.8 μMol of unlabeled trioleoylglycerol and 0.6 mg of phospholipid (phosphatidylcholine/phosphatidylinositol 3:1 w/v) were mixed, dried by means of N2 and then taken up in 2 ml of 0.1 M KPi (pH 7.0) by ultrasonic treatment (Branson 250, microtips, setting 1-2, 2×1 min at a 1 min interval). After addition of 1 ml of KPi and fresh ultrasonic treatment (4×30 sec on ice at 30 sec intervals), 1 ml of 20% BSA (bovine serum albumin) (in KPi) was added (final concentration of trioleoylglycerol at 1.7 mM). For the reaction, 100 μl of substrate solution were pipetted into 100 μl of HSL solution (HSL prepared as above, diluted in 20 mM KPi, pH 7.0, 1 mM EDTA, 1 mM DTT, 0.02% BSA, 20 μg/ml of pepstatin, 10 μg/ml of leupeptin) and incubated at 37° C. for 30 min. After addition of 3.25 ml of methanol/chloroform/heptane (10:9:7) and of 1.05 ml 0.1 M K2CO3, 0.1 M boric acid (pH 10.5), the batch was mixed well and finally centrifuged (800×g, 20 min). After phase separation, one equivalent of the upper phase (1 ml) was removed and the radioactivity was determined by liquid scintillation measurement.
Substances were generally tested in four independent batches. The inhibition of the enzymatic activity of the HSL by a test substance was determined by the comparison with a noninhibited control reaction. The calculation of the IC50 value was carried out by means of an inhibitory curve using at least 10 concentrations of the test substance. […]

The subject of series [2] is lipolysis in rat adipocytes. Description: Inhibition of lipolysis in rat adipocytes. Type of series: cell-based. The conditions noted are these: Adipocyte.
Another series addresses T2, HSL from rats (Rattus norvegicus, UniProt P15304).
T2 construct: from tissue; host or cells: rat
T2 sequence (P15304 1-768 isoform P15304-2): T1 sequence (P15304 1-768 isoform P15304-2)
Description: Inhibition of HSL from rats with NBD as substrate. The format is biochemical.

Series [3] can be described thus: Solubility (characterization of the isolated substance).
[4] abbreviates: trioleoylglycerol as substrate, read-out: IC50, inhibition of hormone-sensitive lipase from rats.
Setting [5] is: NBD (4-chloro-7-nitrobenzo-2-oxa-1,3-diazole) as substrate, read-out: concentrations inhibiting HSL from rats.

On to `CO[P@]1(=O)OC[C@H]2COC(=O)C2=C(C)O1` [CGA 134 736], for which the selective lipase-inhibiting properties entry with lipases is “no selective lipase-inhibiting properties”.

Take `CCCCC(O)CCCCCCCCCCCOP1(=O)OCC2COC(=O)C2=C(C)O1` (stereo not shown) [Cyclipostin A]: the IC50 is 20 nM in series [1] (setting [4]), around 200 nM in series [2] and 4 to 10 nM on HSL from rats (setting [5]). In addition, the “solubility in oxygen-containing organic solvents” value in series [3] was “soluble”. In series [3], the “solubility in water and petroleum ether” value was “only slightly soluble”.

With `CCCC(O)CCCCCCCCCCCCO[P@]1(=O)OC[C@H]2COC(=O)C2=C(C)O1` (stereo partly shown) [Cyclipostin B], in series [3], the “solubility in oxygen-containing organic solvents” value was “soluble”; the “solubility in water and petroleum ether” value was “only slightly soluble”.

With `CCC(=O)CCCCCCCCCCCCCOP1(=O)OC[C@H]2COC(=O)C2=C(C)O1` (stereo partly shown) [Cyclipostin F], in series [3], the “solubility in oxygen-containing organic solvents” value is reported as “soluble”; the “solubility in water and petroleum ether” value is given as “only slightly soluble”.

`CCCCCCCCCCCCCCOP1(=O)OCC2COC(=O)C2=C(C)O1` (stereo not shown) [Cyclipostin N]: the IC50 in series [1] (setting [4]) amounted to 450 nM. Moreover, in series [3], the “solubility in oxygen-containing organic solvents” value is recorded as “soluble”; the “solubility in water and petroleum ether” value is listed as “only slightly soluble”.

For the molecule `CC1=C2C(=O)OCC2COP(=O)(OCCCCCCCCCCCCCC(C)C)O1` (stereo not shown) [Cyclipostin P2], the IC50 in series [1] is 40 nM; in series [2], around 200 nM; against HSL from rats, 4 to 10 nM. For the same molecule, the “solubility in oxygen-containing organic solvents” value in series [3] is listed as “soluble”. Besides, in series [3], the “solubility in water and petroleum ether” value was “only slightly soluble”.

Regarding `CCCCCCCCCCCCCCCCOP1(=O)OCC2COC(=O)C2=C(C)O1` (stereo not shown) [Cyclipostin P], the IC50 in series [1] was 30 nM; in series [2], around 200 nM; against HSL from rats it was 4 to 10 nM. Also, the “solubility in oxygen-containing organic solvents” value in series [3] was “soluble”. In addition, the “solubility in water and petroleum ether” value in series [3] is “only slightly soluble”.

`CC1=C2C(=O)OCC2COP(=O)(OCCCCCCCCCCCCC(C)C)O1` (stereo not shown) [Cyclipostin R2]: in series [1] (setting [4]), the IC50 is 220 nM. Further, in series [3], the “solubility in oxygen-containing organic solvents” value is given as “soluble”; the “solubility in water and petroleum ether” value is given as “only slightly soluble”.

Turning to `CCCCCCCCCCCCCCCOP1(=O)OCC2COC(=O)C2=C(C)O1` (stereo not shown) [Cyclipostin R], the figures for the IC50 (in series [1] (setting [4]); in series [2]; on HSL from rats (setting [5])) were 10 nM, around 200 nM and 4 to 10 nM, respectively. Further, in series [3], the “solubility in oxygen-containing organic solvents” value was “soluble”. Moreover, the “solubility in water and petroleum ether” value in series [3] is “only slightly soluble”.

`CCCCCCCCCCCCCCCCOP1(=O)OCC2COC(=O)C2=C(CC)O1` (stereo not shown) [Cyclipostin S]: in series [1] (setting [4]), the IC50 is 20 nM. Also, in series [3], the “solubility in oxygen-containing organic solvents” value is on record as “soluble”; the “solubility in water and petroleum ether” value was “only slightly soluble”.

Turning to `CCCC1=C2C(=O)OCC2COP(=O)(OCCCCCCCCCCCCCC(C)C)O1` (stereo not shown) [Cyclipostin T2], in series [1] (setting [4]), the IC50 stood at 60 nM. In series [3], the “solubility in oxygen-containing organic solvents” value is “soluble”; the “solubility in water and petroleum ether” value was “only slightly soluble”.

Turning to `CCCCCCCCCCCCCCCCOP1(=O)OCC2COC(=O)C2=C(CCC)O1` (stereo not shown) [Cyclipostin T], in series [1] (setting [4]), the IC50 turned out to be 200 nM. In series [3], the “solubility in oxygen-containing organic solvents” value is reported as “soluble”; the “solubility in water and petroleum ether” value is listed as “only slightly soluble”.
